Molecules are shown by their SMILES. Numbers after ± are expanded uncertainties.

For data set [1] the following is noted: Crystal; DTA.
Data set [2] in a line: Molar enthalpy of transition or fusion. The settings on record: Crystal; DSC.

In the case of `OC/C=C/c1ccccc1` [trans-cinnamyl alcohol], in data set [1], the Normal melting temperature was 32.47 ± 0.61 °C. The “Molar enthalpy of transition or fusion” value in data set [2] is 3.28 ± 0.287 kcal/mol.

(Values after the NIST ThermoML archive (doi:10.1021/acs.jced.7b00665).)
